Series [1] concerns BT474 (HER2+) breast cancer cells. Briefly: MTT cytotoxicity assay, BT474. It is filed as cell-based. The conditions noted are these: Homo sapiens, BT-474. The protocol:
(§1) Human estrogen-receptor positive (ER+) breast adenocarcinoma cell lines, MCF7 and T47D, were maintained in Roswell Park Memorial Institute-1640 medium (Sigma Aldrich, Missouri, USA) and the human epidermal growth factor receptor 2 positive (HER2+) BT474, and triple negative (TNBC) MDA-MB-231 and MDA-MB-468 cells were maintained in Dulbecco's Modified Eagle's Medium (DMEM) (Sigma Aldrich, Missouri, USA). […]
(§2) Cells (3.5×10^3-6×10^3 / well) were seeded in 96-well plates and treated at a 60-70 % confluence with a range of concentrations (0-10 μM) of test compounds or vehicle for 48 h. Cell viability was measured using the 3-(4,5-dimethylthiazol-2-yl)-2,5-diphenyl-trazolium bromide (MTT) assay (11465007001; Sigma Aldrich) according to the manufacturer's instructions. Mean cell viability was calculated as a percentage of the mean vehicle control. A minimum of three independent experiments in quadruplicate were performed from which the IC50 was determined from sigmoidal plots using GraphPad Prism version 6.0 (GraphPad Software, California, USA). The selectivity index (SI) was determined by dividing the IC50 of a non-malignant cell line by the IC50 of a cancer cell line.

Series [2] is described as follows: MTT cytotoxicity assay, MCF12A. It is filed as cell-based. As to conditions: human, MCF12A non-malignant breast epithelial cells, MTT, read-out: Cytotoxicity assays (MTT) IC50 MCF12A. The protocol: as §1
as §2, with “line. […]” for “line.”
(In general: Formazan colour is commonly taken as a measure of viable cells.)

Series [3] concerns MCF12A (normal breast epithelial cell line). Briefly: MTT cytotoxicity assay, MCF12A. It counts as cell-based. As to conditions: Homo sapiens, MCF-12A, 48 h, Fig 2C summary, MTT 48 h; read-out: IC50 ± SEM MCF12A. How it is done:
as §1
as §2, with “line. […]” for “line.”

Series [4] has as its system FG0 human skin fibroblasts. In words: MTT cytotoxicity assay, FG0. It is filed as cell-based. As to conditions: Skin fibroblast. The protocol:
as §1, §2

In a further series the test system is MCF7 tumors. Briefly: Chick embryo CAM xenograft: tumor weight and metastasis. It counts as in vivo. The conditions noted are these: every 48 h E10-E16, weighed E18. The protocol:
All studies and procedures were conducted with prior approval of the Animal Ethics Committee of the University of Cape Town (FHS AEC REF NO:016/025) in accordance with the South African National Standard (SANS 10386:008) for the Care and Use of Animals for Scientific Purposes (SABS, 2015[71]), and guidelines from the Department of Health (2015[21]). Fertilized White Leghorn eggs were incubated at 37.5 °C with 50 % relative humidity for 9 days. At stage E9, the chorioallantoic membrane (CAM) was dropped by drilling a small hole through the eggshell into the air sac and a 1 cm^2 window was cut in the eggshell above the CAM. Cultured MCF7 cells were detached with trypsin, washed with complete medium and suspended in PBS. An inoculum of MCF7 cells was grafted onto the CAM of each E9 egg (21 eggs were used for each condition) and at E10, tumors were detectable. MCF7 tumors were treated every 48 h (E10, E12, E14, E16) by dropping 100 μl of vehicle (0.25 % DMSO in PBS), a reference compound (Paclitaxel), or MMV652103, onto the tumour. At E18 the upper portion of the CAM was removed, transferred to PBS and the tumors cut away from normal CAM tissue and weighed. A one-way ANOVA analysis with post-tests was done. In parallel, a 1 cm^2 portion of the lower CAM was collected to evaluate the number of metastatic cells. The relative amount of metastasis was calculated as follows: Tumor cells were grafted onto the upper chorioallantoic membrane (CAM) and during metastasis the cells invade the epithelium and basement membrane of the upper CAM and move through connective tissue into the vasculature into the lower CAM. The cells in the lower CAM are then harvested and genomic DNA is extracted and analyzed by qPCR with specific primers for Alu sequences which are only found in higher primates i.e. it allows for the distinction between human tumor cells and the host chick cells. Statistical analysis was directly performed on data from the Bio-Rad CFX Manager 3.1 software.

The target of another series is T1, PI4K2A (Homo sapiens, UniProt Q9BTU6).
T1 construct: purchased Carna Biosciences Inc; Invitrogen Corporation
T1 sequence (Q9BTU6 whole entry): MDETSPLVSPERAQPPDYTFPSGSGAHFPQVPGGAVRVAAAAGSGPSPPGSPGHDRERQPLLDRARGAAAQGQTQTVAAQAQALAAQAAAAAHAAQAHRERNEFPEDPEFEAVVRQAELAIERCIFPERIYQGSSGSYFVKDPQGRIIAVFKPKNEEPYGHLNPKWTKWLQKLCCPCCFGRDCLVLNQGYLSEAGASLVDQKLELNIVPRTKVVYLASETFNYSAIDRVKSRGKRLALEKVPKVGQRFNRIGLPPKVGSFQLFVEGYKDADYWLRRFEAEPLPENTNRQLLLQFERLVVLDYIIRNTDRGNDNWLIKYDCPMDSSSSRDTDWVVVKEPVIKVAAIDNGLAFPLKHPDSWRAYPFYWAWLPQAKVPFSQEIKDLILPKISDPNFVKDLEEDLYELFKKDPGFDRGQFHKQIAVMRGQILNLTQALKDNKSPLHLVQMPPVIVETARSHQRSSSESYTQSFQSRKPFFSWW
Briefly: ADP-Glo lipid kinase assay, PI4K2A. It is filed as biochemical. As to conditions: 10 µM compound.

In a further series the target is T2, PIK3C2B (Homo sapiens, UniProt O00750).
T2 construct: purchased Carna Biosciences Inc; Invitrogen Corporation
T2 sequence (O00750 whole entry): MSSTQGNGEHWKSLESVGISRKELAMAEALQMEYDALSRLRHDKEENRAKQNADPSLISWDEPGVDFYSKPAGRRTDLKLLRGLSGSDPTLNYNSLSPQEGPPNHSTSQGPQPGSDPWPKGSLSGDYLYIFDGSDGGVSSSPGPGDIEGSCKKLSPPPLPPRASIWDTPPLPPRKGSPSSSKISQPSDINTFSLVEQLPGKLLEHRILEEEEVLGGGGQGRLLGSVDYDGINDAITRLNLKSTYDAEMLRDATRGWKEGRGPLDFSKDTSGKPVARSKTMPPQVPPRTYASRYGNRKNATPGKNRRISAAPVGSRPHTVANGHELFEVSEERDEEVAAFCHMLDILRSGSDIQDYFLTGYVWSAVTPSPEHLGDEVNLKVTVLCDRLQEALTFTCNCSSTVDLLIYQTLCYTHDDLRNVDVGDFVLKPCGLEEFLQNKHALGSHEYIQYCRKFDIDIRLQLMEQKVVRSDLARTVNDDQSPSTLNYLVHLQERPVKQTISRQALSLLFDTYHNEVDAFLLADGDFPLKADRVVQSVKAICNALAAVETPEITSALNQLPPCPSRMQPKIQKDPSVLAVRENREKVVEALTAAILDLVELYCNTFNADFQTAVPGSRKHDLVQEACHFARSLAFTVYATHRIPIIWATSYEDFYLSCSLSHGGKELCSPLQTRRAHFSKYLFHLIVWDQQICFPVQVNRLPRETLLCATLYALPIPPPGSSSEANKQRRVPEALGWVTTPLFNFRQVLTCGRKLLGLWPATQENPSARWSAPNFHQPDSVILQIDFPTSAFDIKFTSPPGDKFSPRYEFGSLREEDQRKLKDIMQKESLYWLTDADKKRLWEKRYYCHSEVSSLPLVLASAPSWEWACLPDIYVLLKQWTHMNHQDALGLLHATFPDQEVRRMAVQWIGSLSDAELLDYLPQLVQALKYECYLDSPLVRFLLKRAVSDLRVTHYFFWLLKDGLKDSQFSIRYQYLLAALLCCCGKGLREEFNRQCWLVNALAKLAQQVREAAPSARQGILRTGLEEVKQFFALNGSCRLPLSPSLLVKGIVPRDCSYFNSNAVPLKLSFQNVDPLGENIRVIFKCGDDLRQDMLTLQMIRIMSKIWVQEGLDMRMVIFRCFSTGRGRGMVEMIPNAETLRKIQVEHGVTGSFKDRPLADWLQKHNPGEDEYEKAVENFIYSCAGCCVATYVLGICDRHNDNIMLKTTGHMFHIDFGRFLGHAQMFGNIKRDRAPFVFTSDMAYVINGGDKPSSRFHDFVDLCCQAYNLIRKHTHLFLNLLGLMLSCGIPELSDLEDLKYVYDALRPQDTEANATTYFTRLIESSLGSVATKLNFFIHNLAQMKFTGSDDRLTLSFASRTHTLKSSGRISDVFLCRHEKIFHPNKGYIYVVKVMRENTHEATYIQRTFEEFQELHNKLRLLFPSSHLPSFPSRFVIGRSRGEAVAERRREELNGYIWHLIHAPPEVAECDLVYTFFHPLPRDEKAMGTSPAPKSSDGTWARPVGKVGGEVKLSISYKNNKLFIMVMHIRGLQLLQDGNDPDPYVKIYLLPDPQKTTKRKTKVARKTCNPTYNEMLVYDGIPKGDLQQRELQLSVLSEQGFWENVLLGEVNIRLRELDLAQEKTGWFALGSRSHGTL
Briefly: ADP-Glo lipid kinase assay, PIK3C2B. It is filed as biochemical. The conditions noted are these: 10 µM compound. For orientation: ADP-Glo first removes unused ATP, then detects ADP through luciferase.

The target in a further series is T3, PI4K2B (Homo sapiens, UniProt Q8TCG2).
T3 construct: purchased Carna Biosciences Inc; Invitrogen Corporation
T3 sequence (Q8TCG2 whole entry): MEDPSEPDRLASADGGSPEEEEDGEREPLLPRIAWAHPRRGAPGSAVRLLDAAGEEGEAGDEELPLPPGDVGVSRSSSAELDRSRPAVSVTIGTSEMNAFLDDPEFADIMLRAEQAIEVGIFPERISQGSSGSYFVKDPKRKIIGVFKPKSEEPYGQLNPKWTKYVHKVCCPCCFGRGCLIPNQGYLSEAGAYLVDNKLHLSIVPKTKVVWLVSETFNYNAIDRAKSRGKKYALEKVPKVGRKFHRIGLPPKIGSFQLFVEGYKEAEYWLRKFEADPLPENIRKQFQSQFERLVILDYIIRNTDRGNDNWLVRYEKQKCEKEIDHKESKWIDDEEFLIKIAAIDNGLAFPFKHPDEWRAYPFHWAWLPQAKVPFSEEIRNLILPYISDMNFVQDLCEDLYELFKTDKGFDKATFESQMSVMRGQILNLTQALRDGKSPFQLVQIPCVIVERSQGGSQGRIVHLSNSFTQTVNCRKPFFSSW
In words: ADP-Glo lipid kinase assay, PI4K2B. It counts as biochemical. As to conditions: 10 µM compound.

In another series the test system is MCF7 cells. In words: Scratch motility assay, MCF7. It counts as cell-based, human. The conditions noted are these: IC50 and 2 x IC50; 3, 6, 9 h. The protocol:
Cells were grown to 100 % confluence in 12-well tissue culture plates and the following day a sterile 2 µl pipette tip was used to make a vertical scratch in the cell monolayer of each well and the cells treated with mitomycin C (M4287; Sigma Aldrich) at a final concentration of 10 μg/ml to inhibit proliferation. Cells were subsequently treated with MMV652103 or vehicle and imaged at 0, 3, 6 and 9 h post wound formation and ImageJ v1.50i software was used to calculate the area of the scratch (Schneider et al., 2012[73]). The total areas migrated was determined by subtracting the area for a specific time point from the area measured at 0 h.

Where two headings read alike, the source gives them in different places. Bounds are passed on as bounds.

The IC50 is the concentration that inhibits the measured activity by half. By remaining activity is commonly meant the share of the control activity or signal that is left under treatment. For the compound `CS(=O)(=O)c1ccc(-c2cnc3ccc(-c4cccc(S(C)(=O)=O)c4)nn23)cc1` [MMV652103], the IC50 was 7.3 ± 1.05 µM in series [1] (Fig 2C summary, MTT 48 h, read-out: IC50 ± SEM BT474); 7.3 µM in series [1] (MTT, 48 h, read-out: IC50 BT474); 6.6 ± 1.07 µM in series [3]; more than 10 µM in [4] (Fig 2C summary, MTT 48 h, read-out: IC50 ± SEM FG0); more than 10 µM in series [4] (MTT, 48 h, exact IC50 not reached, predicted, read-out: IC50 FG0). For the same compound, the 50% inhibitory concentration (IC50) at 48 h in [2] turned out to be 6.64 µM. In addition, the tumor weight reduction with MCF7 tumors (4.4 μM) turned out to be 34.89%; in the series with MCF7 tumors (22 μM), 41.71%. The results for the remaining activity at 10 µM at PI4K2A, at PIK3C2B and on PI4K2B were 42%, 31% and 50%, respectively. Also, the MCF7 cell migration result in the series on MCF7 cells was “significant reduction”.

The values above are taken from PMC9149975, “The diaryl-imidazopyridazine anti-plasmodial compound, MMV652103, exhibits anti-breast cancer activity” (EXCLI Journal, 2022).
